From the Kinase Knowledgebase extract (Sharma et al. 2016)

Each molecule was assayed against PIK3CD (UniProt O00329) (assay: PIK3-delta Kinase Inhibition).
Chain of PIK3CD (O00329 whole entry, looked up): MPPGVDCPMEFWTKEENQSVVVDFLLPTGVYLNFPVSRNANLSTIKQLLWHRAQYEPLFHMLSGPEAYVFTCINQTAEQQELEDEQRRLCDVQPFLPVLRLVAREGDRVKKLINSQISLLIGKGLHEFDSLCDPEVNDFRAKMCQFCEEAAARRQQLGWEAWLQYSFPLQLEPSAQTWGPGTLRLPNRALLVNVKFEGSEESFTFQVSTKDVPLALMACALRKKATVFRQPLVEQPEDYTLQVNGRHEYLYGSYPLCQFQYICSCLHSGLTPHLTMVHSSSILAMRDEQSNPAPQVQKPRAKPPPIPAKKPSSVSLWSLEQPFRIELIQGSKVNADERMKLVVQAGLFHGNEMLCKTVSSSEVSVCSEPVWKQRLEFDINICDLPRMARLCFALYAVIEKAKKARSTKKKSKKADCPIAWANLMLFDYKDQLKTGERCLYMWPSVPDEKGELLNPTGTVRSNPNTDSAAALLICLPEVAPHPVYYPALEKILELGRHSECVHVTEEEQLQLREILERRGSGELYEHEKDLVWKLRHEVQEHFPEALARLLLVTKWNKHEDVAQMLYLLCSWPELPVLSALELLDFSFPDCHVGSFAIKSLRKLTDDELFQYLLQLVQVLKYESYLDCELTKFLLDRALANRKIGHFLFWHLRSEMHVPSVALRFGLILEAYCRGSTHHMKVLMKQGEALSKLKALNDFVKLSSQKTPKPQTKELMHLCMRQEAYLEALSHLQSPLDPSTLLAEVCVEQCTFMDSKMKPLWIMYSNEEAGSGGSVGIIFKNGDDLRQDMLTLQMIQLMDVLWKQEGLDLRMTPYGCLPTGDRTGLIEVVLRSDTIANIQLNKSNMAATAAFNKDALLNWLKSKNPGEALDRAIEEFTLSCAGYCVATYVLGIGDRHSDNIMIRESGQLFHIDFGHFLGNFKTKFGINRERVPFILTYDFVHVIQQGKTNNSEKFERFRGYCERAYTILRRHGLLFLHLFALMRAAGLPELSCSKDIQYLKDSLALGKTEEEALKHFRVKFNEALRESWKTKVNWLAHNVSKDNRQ

Row | SMILES | IC50 [µM]
1 | COc1ccccc1Nc1cc(C)cn2c(=O)cc(N3CCOCC3)nc12 | 10
2 | O=c1cc(N2CCOCC2)oc2ccccc12 | 13
3 | Cc1cc(Br)c2nc(N3CCOCC3)cc(=O)n2c1 | 8.5
4 | Cc1cc(-c2cccc(N)c2)c2nc(N3CCOCC3)cc(=O)n2c1 | 6.9
5 | Nc1cc(N2CCOCC2)ccc1[N+](=O)[O-] | 24
6 | O=c1cc(N2CCOCC2)oc2c(-c3ccccc3)cccc12 | 6

The next lines start with the values.

Row | IC50 [µM] | SMILES
7 | 5 | Cc1cc(Nc2ccc(C)c(C)c2)c2nc(N3CCOCC3)cc(=O)n2c1
8 | 4.8 | O=C(CCl)c1ccc(N2CCOCC2)cc1O
9 | 3.8 | CC(=O)c1ccc(N2CCOCC2)cc1O
10 | 3.8 | Cc1cc(Nc2ccccc2C)c2nc(N3CCOCC3)cc(=O)n2c1
11 | 3.3 | Cc1cc(Nc2cccc(C)c2C)c2nc(N3CCOCC3)cc(=O)n2c1
12 | 0.63 | Cc1ccccc1Oc1cccc2c(=O)cc(N3CCOCC3)[nH]c12
13 | 0.39 | Cc1cccc(CNc2cc(C)cn3c(=O)cc(N4CCOCC4)nc23)c1
14 | 0.15 | Cc1cc(NCc2ccccc2)c2nc(N3CCOCC3)cc(=O)n2c1

The molecules below were run against PIK3CB (UniProt P42338) (assay: PIK3-beta Kinase Inhibition).
Chain of PIK3CB (P42338 whole entry, looked up): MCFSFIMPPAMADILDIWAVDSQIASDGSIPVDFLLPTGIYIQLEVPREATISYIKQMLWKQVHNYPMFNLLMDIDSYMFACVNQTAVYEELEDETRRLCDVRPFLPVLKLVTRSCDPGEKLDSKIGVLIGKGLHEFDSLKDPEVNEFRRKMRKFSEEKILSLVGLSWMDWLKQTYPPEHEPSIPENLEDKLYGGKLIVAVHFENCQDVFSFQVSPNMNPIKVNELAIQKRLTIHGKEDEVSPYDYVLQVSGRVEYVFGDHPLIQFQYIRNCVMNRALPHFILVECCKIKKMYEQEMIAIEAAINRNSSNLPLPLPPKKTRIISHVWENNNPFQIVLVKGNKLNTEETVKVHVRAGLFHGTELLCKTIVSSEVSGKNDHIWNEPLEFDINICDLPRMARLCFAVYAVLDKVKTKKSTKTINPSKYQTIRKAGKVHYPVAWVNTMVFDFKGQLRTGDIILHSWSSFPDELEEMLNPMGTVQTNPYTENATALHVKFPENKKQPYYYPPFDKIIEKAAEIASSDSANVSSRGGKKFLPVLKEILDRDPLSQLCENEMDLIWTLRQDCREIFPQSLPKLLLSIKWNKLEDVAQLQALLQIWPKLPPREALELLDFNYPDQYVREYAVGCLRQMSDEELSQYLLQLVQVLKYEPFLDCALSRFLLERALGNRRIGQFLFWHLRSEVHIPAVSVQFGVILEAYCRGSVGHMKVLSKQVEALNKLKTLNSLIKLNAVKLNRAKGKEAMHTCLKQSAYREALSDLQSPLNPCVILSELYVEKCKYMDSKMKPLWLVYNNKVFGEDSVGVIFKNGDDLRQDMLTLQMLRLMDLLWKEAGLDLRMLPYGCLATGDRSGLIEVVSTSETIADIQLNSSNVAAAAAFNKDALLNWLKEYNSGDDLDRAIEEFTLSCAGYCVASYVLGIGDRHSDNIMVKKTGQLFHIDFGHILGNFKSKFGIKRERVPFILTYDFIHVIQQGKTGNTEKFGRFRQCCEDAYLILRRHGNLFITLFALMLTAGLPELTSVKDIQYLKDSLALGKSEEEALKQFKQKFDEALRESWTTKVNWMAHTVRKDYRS

Row | SMILES | IC50 [µM] | IC80 [µM]
15 | COc1ccccc1Nc1cc(C)cn2c(=O)cc(N3CCOCC3)nc12 | 20 | 
16 | O=c1cc(N2CCOCC2)oc2ccccc12 | 7.5 | 
17 | Cc1cc(Br)c2nc(N3CCOCC3)cc(=O)n2c1 | 9.9 | 
18 | Cc1cc(-c2cccc(N)c2)c2nc(N3CCOCC3)cc(=O)n2c1 | 18 | 
19 | O=C(c1ccccc1)c1ccc(N2CCOCC2)cc1O | 3.7 | 
20 | Nc1cc(N2CCOCC2)ccc1[N+](=O)[O-] | 23 | 
21 | O=Cc1ccc(N2CCOCC2)cc1O | 2.8 | 
22 | Cc1cc(NCc2ccccc2C)c2nc(N3CCOCC3)cc(=O)n2c1 | 0.11 | 

More lines, now with the values ahead:

Row | IC50 [µM] | IC80 [µM] | SMILES
23 | 14 |  | Cc1cc(Nc2ccc(C)c(C)c2)c2nc(N3CCOCC3)cc(=O)n2c1
24 |  | 0.99 | CC(=O)c1ccc(N2CCOCC2)cc1O
25 | 3.3 |  | Cc1cc(Nc2ccccc2C)c2nc(N3CCOCC3)cc(=O)n2c1
26 | 3.5 |  | Cc1cc(Nc2cccc(C)c2C)c2nc(N3CCOCC3)cc(=O)n2c1
27 | 0.13 |  | Cc1ccccc1Oc1cccc2c(=O)cc(N3CCOCC3)[nH]c12
28 | 0.99 |  | Cc1cccc(CNc2cc(C)cn3c(=O)cc(N4CCOCC4)nc23)c1
29 | 0.16 |  | Cc1cc(NCc2ccccc2)c2nc(N3CCOCC3)cc(=O)n2c1

What follows are molecules tested against PIK3CG (UniProt P48736) (assay: PIK3-gamma Kinase Inhibition).
Chain of PIK3CG (P48736 whole entry, looked up): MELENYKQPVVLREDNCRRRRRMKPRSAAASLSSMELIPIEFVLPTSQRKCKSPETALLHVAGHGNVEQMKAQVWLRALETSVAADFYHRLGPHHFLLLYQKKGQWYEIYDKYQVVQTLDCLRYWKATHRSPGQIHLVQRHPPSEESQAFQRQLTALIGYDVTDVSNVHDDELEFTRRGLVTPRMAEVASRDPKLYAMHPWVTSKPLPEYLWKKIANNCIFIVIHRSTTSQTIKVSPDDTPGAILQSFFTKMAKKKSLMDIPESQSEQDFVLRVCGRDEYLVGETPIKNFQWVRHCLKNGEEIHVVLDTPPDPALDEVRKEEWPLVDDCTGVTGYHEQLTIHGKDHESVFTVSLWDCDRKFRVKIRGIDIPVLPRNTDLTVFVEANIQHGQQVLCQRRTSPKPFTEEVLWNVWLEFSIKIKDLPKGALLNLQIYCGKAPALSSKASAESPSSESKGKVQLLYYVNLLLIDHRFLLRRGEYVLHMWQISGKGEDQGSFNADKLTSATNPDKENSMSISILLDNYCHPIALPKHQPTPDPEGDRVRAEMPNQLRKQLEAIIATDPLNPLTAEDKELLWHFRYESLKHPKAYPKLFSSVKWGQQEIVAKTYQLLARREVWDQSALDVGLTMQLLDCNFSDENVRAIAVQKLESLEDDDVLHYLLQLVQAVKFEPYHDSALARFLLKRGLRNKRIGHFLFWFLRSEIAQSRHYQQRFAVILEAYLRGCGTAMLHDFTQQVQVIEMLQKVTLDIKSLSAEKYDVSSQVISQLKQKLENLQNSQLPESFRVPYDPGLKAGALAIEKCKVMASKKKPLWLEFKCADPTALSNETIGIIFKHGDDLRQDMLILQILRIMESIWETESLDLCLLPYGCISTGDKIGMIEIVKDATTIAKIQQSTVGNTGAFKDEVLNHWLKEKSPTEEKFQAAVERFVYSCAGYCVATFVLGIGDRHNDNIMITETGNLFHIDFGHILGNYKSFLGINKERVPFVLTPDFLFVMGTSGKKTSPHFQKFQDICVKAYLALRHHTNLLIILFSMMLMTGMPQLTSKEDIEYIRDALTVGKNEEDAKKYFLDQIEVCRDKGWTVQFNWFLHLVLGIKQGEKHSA

Row | SMILES | IC50 [µM]
30 | COc1ccccc1Nc1cc(C)cn2c(=O)cc(N3CCOCC3)nc12 | > 100
31 | O=c1cc(N2CCOCC2)oc2ccccc12 | 100
32 | Cc1cc(Br)c2nc(N3CCOCC3)cc(=O)n2c1 | > 100
33 | Cc1cc(-c2cccc(N)c2)c2nc(N3CCOCC3)cc(=O)n2c1 | 38
34 | Nc1cc(N2CCOCC2)ccc1[N+](=O)[O-] | 100

The remaining lines, values ahead:

Row | IC50 [µM] | SMILES
35 | > 100 | Cc1cc(Nc2ccc(C)c(C)c2)c2nc(N3CCOCC3)cc(=O)n2c1
36 | 70 | O=C(CCl)c1ccc(N2CCOCC2)cc1O
37 | 10 | CC(=O)c1ccc(N2CCOCC2)cc1O
38 | > 100 | Cc1cc(Nc2ccccc2C)c2nc(N3CCOCC3)cc(=O)n2c1
39 | 100 | Cc1cc(Nc2cccc(C)c2C)c2nc(N3CCOCC3)cc(=O)n2c1
40 | 100 | Cc1ccccc1Oc1cccc2c(=O)cc(N3CCOCC3)[nH]c12
41 | 25 | Cc1cccc(CNc2cc(C)cn3c(=O)cc(N4CCOCC4)nc23)c1
42 | 10 | Cc1cc(NCc2ccccc2)c2nc(N3CCOCC3)cc(=O)n2c1

The molecules below were run against PIK3CA (UniProt P42336) (assay: PIK3-alpha Kinase Inhibition).
Chain of PIK3CA (P42336 whole entry, looked up): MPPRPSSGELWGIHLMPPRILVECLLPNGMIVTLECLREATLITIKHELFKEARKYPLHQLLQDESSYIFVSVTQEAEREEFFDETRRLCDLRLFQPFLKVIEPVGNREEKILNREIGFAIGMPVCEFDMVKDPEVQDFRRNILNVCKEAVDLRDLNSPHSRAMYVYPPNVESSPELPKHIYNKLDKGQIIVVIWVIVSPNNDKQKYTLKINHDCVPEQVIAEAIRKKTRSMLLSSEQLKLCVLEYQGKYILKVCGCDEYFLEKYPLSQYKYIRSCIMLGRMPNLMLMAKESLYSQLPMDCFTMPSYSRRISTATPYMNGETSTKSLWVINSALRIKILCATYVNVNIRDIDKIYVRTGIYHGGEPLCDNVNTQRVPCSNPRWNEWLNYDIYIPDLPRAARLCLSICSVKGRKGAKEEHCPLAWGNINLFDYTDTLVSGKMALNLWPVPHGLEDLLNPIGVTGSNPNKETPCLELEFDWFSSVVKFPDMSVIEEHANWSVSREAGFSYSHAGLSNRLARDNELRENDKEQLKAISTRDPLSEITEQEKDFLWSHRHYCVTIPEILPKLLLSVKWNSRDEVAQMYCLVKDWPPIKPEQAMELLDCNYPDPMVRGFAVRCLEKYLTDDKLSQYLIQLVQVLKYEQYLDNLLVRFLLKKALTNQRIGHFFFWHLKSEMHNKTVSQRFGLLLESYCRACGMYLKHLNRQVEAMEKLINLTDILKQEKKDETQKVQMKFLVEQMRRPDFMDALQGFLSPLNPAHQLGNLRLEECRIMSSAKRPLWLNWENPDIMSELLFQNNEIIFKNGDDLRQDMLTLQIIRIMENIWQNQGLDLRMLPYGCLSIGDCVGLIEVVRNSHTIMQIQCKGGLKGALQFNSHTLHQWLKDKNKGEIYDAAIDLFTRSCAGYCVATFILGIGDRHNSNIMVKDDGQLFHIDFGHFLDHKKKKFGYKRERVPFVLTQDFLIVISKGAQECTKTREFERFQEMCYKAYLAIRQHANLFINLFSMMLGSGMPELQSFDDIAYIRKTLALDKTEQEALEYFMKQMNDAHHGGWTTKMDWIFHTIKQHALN

Row | SMILES | IC50 [µM]
43 | COc1ccccc1Nc1cc(C)cn2c(=O)cc(N3CCOCC3)nc12 | 50
44 | O=c1cc(N2CCOCC2)oc2ccccc12 | 45
45 | Cc1cc(Br)c2nc(N3CCOCC3)cc(=O)n2c1 | 58
46 | Cc1cc(-c2cccc(N)c2)c2nc(N3CCOCC3)cc(=O)n2c1 | 14
47 | Nc1cc(N2CCOCC2)ccc1[N+](=O)[O-] | 100

Further lines, results first:

Row | IC50 [µM] | SMILES
48 | 10 | Cc1cc(Nc2ccc(C)c(C)c2)c2nc(N3CCOCC3)cc(=O)n2c1
49 | 30 | O=C(CCl)c1ccc(N2CCOCC2)cc1O
50 | 16 | CC(=O)c1ccc(N2CCOCC2)cc1O
51 | 9 | Cc1cc(Nc2ccccc2C)c2nc(N3CCOCC3)cc(=O)n2c1
52 | 6.2 | Cc1cc(Nc2cccc(C)c2C)c2nc(N3CCOCC3)cc(=O)n2c1
53 | 61 | Cc1ccccc1Oc1cccc2c(=O)cc(N3CCOCC3)[nH]c12
54 | 1.8 | Cc1cccc(CNc2cc(C)cn3c(=O)cc(N4CCOCC4)nc23)c1
55 | 8.1 | Cc1cc(NCc2ccccc2)c2nc(N3CCOCC3)cc(=O)n2c1
